Experimental data as given in ChEMBL document CHEMBL3430912, “GSK Tres Cantos Anti-Kinetoplastid Screening (TCAKS) Data”.

Key:
[1] = tested on: Trypanosoma cruzi; experiment: GSK_TCAKS: pIC50 Trypanosoma cruzi viability assay using beta-GAL activity. This assay was run at single shot at 5uM compound concentration per well. The biological reagents consisted of NIH-3T3 host cells and trypomastigotes parasitic cells; both cell types were set to a 3.3 * 10^5 cells/mL dilution in assay DMEM by means of a CASY cell counter device using a 60um capillary. 6 uL of the mixture were dispensed per well (about 1 * 10^3 host-cells and 1 * 10^3 parasites) with a Multidrop Combi dispenser. […] In all wells, the percentage of DMSO never exceeded 0.5%. Plates incubated for four days at 37C, 5% CO2. The substrate used for the assay fluorescence intensity (FLINT) readout was resorufin-beta-D-galactopiranoside (Sigma-Aldrich) at 5uM per well. It was diluted in PBS supplemented with the soft detergent Igepal (Fluka).; format: functional, organism-based, Mus musculus; conditions: Tulahuen, NIH3T3
[2] = tested on: Trypanosoma cruzi; experiment: (§1) GSK_TCAKS: pIC50 Trypanosoma cruzi Imaging: Infected Cells. […] Cells were then washed once with PBS before infection. T. cruzi trypomastigotes, collected at days 5 to 8 after infection from LLC-MK2 parasite infected cultures, were allowed to swim out for 4h at 37C from a centrifuged pellet (2,500 rpm/10 min/room temperature). Trypomastigotes were then collected and counted in a CASY Cell Counter. Trypomastigotes, in supplemented DMEM, were added to H9c2 cultures in a multiplicity of infection of 1 and incubated for 18 h. Cells were washed once with PBS before incubation of the infected H9c2 monolayer with trypsin (Life-Technologies) to detach cells from the flask. Cells were counted in a CASY Cell Counter using a 150 um capillary and their density set at 5 * 10^4 cells per mL in supplemented assay DMEM. Infected H9c2 were dispensed into 384-well poly-lysine coated assay plates at 50uL per well using a Multidrop Combi dispenser. After seeding them, the plates were incubated at 37C, 5% CO2 for 72h. Cultures were then fixed and stained by addition of 50 uL of a solution containing 8% formaldehyde and 4 uM DRAQ5 DNA dye (BioStatus, UK) per well. […] Five images were collected per well for reliable statistical analysis. Automated image analysis was performed with a script developed on Acapella High Content Imaging and Analysis Software (PerkinElmer). Output: percentage of infected cells per well as a second infection marker.; format: functional, organism-based, Rattus norvegicus; conditions: H9c2, 4 h
[3] = tested on: Trypanosoma cruzi; experiment: GSK_TCAKS: pIC50 Trypanosoma cruzi Imaging: Amastigotes/Cell. […] Cells were then washed once with PBS before infection. T. cruzi trypomastigotes, collected at days 5 to 8 after infection from LLC-MK2 parasite infected cultures, were allowed to swim out for 4h at 37C from a centrifuged pellet (2,500 rpm/10 min/room temperature). Trypomastigotes were then collected and counted in a CASY Cell Counter. Trypomastigotes, in supplemented DMEM, were added to H9c2 cultures in a multiplicity of infection of 1 and incubated for 18 h. Cells were washed once with PBS before incubation of the infected H9c2 monolayer with trypsin (Life-Technologies) to detach cells from the flask. Cells were counted in a CASY Cell Counter using a 150 um capillary and their density set at 5 * 10^4 cells per mL in supplemented assay DMEM. Infected H9c2 were dispensed into 384-well poly-lysine coated assay plates at 50uL per well using a Multidrop Combi dispenser. After seeding them, the plates were incubated at 37C, 5% CO2 for 72h. Cultures were then fixed and stained by addition of 50 uL of a solution containing 8% formaldehyde and 4 uM DRAQ5 DNA dye (BioStatus, UK) per well. […] Five images were collected per well for reliable statistical analysis. Automated image analysis was performed with a script developed on Acapella High Content Imaging and Analysis Software (PerkinElmer). Output: number of amastigotes per cell as infection level measurement.; format: functional, organism-based, Rattus norvegicus; conditions: H9c2, 4 h
[4] = tested on: Trypanosoma cruzi; experiment: as §1, with “H2C9” for “Trypanosoma cruzi”, “H9c2 Host Cardiomyocytes.” for “Infected Cells.”, “Number” for “percentage”, “H9c2 Host Cardiomyocytes nuclei to determine drug-related cytotoxicity.” for “infected cells per well as a second infection marker.”; format: functional, organism-based, Rattus norvegicus; conditions: H9c2, 4 h
[5] = tested on: Leishmania donovani; experiment: GSK_TCAKS: pIC50 Leishmania donovani viability assay using fluorescence intensity. Assay plates (1536-well) were prepared by adding 30nL per well of compound. For single shot assay, the final compound concentration was 5uM. […] Briefly, eGFP LdBOB axenic amastigotes were harvested, fixed and counted in a CASY cell counter (Roche-Applied Science). A final concentration of 1.5 * 10^5 cells per well were prepared in amastigote media containing 500 U/mL penicillin/streptomycin (Invitrogen) and 6uL was dispensed to each experimental well using a Multidrop Combi dispenser (Thermo Scientific). 6uL of assay media was dispensed to control columns used as reference for 100% compound response. Following incubation for 72 h at 37C, 5% CO2, 2 uL of resazurin was added to each well at a final concentration of 0.5 mM in phosphate buffered saline (PBS) with IGEPAL (Sigma-Aldrich), 0.05% (v/v).; format: functional, organism-based
[6] = tested on: Leishmania donovani; experiment: (§2) GSK_TCAKS: pIC50 Leishmania donovani Imaging: Infected Macrophages. Assay plates (384-well) were prepared by adding 250nL of compound to each well. For single shot assay, the final compound concentration was 5 uM. […] Automated image analysis was performed with a script developed on Acapella High Content Imaging and Analysis Software (PerkinElmer). Output: Percent of infected macrophage cells were reported for each well.; format: functional, organism-based, Homo sapiens; conditions: THP-1
[7] = tested on: Leishmania donovani; experiment: as §2, with “Amastigotes/Macrophages.” for “Infected Macrophages.”, “Average number” for “Percent”, “amastigotes per” for “infected”, “cell” for “cells”; format: functional, organism-based, Homo sapiens; conditions: THP-1
[8] = tested on: Leishmania donovani; experiment: as §2, with “THP-1 Host” for “Infected”, “THP-1 cell count” for “Percent of infected macrophage cells”; format: functional, organism-based, Homo sapiens
[9] = tested on: Trypanosoma brucei brucei; experiment: GSK_TCAKS: pIC50 Trypanosoma brucei viability assay using fluorescence intensity. Assay plates (1536-well) were prepared by dispensing 25nL of compound solution per well using an Echo acoustic dispenser (Labcyte).; format: functional, organism-based; conditions: Lister 427, 2 h
[10] = tested on: Trypanosoma brucei brucei; experiment: GSK_TCAKS: pIC50 Trypanosoma brucei viability assay using luminiscence. Assay plates (1536-well) were prepared. T. brucei cultures were harvested and counted in a CASY cell counter. A parasite suspension was prepared at a final concentration of 5 * 10^4 cells/mL in complete HMI9 medium and 6uL was dispensed to all wells containing compounds using a Multidrop Combi dispenser. 6uL of HMI9 media with 0.4% DMSO were dispensed to control columns. Plates were incubated for 24 h at 37C, 5% CO2 then tempered for 10 min at room temperature. ATP content was quantified by adding 4 uL of CellTiter-Glo Reagent (Promega) according to the manufacturer's instructions. Luminescence was measured using a ViewLux.; format: functional, organism-based; conditions: Lister 427, CASY
[11] = GSK_TCAKS: pIC50 HepG2 human cell line viability assay using luminiscence. […] Seeding density was checked to ensure that new mono-layers were not more than 50% confluent at the time of harvesting. Cell suspension was added to 500 mL of the same medium at a final density of 1.2 * 10^5 cells/mL. This cell suspension was dispensed (25 uL, 3000 cells per well) into 384-well clear-bottom plates using a Multidrop Combi dispenser. Prior to addition of the cell suspension, the screening compounds (250 nL) were pre-dispensed into the plates with an Echo liquid handler. Plates were incubated for 48 h at 37C, 5% CO2. After incubation, plates equilibrated at room temperature for 30 min before proceeding to develop the luminescent signal. The signal developer, CellTiter-Glo Reagent, was allowed to equilibrate at room temperature for 30 min and added to the plates (25uL per well) using a Multidrop Combi dispenser. Plates were left for 10 min at room temperature for stabilization and then read using a ViewLux.; format: toxicity, cell-based
[12] = molecular target: Sterol 14-alpha demethylase (Trypanosoma cruzi (strain CL Brener), UniProt Q7Z1V1); experiment: GSK_TCAKS: pIC50 CYP51 from Trypanosoma cruzi.; format: functional
Chain of Sterol 14-alpha demethylase (Q7Z1V1 whole entry): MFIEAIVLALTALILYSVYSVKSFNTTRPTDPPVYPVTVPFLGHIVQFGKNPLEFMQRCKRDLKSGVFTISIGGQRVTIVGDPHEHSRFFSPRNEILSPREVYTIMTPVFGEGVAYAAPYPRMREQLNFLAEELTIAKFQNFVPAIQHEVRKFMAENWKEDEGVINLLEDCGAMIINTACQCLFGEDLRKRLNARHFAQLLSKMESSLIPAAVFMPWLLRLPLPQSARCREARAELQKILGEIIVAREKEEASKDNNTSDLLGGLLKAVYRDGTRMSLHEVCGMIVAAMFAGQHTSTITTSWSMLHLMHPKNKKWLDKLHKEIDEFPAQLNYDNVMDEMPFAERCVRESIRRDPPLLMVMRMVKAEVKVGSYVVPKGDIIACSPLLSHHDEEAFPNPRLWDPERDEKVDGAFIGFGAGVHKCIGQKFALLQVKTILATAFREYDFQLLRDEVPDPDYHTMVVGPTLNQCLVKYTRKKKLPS

Row | Structure (SMILES) | IC50 [1] | IC50 [2] | IC50 [3] | IC50 [4] | IC50 [5] | IC50 [6] | IC50 [7] | IC50 [8] | IC50 [9] | IC50 [10] | IC50 at 48 h [11] | IC50 [12]
1 | CCc1ccccc1[C@@H](C)NC(=O)c1cnc2c(cnn2CC)c1NC1CCN(C(N)=O)CC1 | 25.1 µM | > 50.1 µM | 39.8 µM | > 50.1 µM | > 50.1 µM | > 50.1 µM | > 50.1 µM | > 50.1 µM | 0.251 µM | 0.501 µM | > 100 µM | 79.4 µM
2 | COC(=O)c1ccc(-c2cnc3ccc(NCc4ccccn4)nn23)cc1 | 7.94 µM | 7.94 µM | 5.01 µM | > 50.1 µM | 12.6 µM | > 50.1 µM | 15.8 µM | 12.6 µM | 0.631 µM | 1 µM | 100 µM | 1.26 µM
3 | O=C(Nc1cccc(S(=O)(=O)Nc2ccc(Br)cc2)c1)c1ccc([N+](=O)[O-])s1 | 0.1 µM | 0.126 µM | 0.1 µM | 2.51 µM | 0.794 µM | 1 µM | 0.794 µM | 10 µM | 0.2 µM | 0.398 µM | 15.8 µM | 2.51 µM
4 | CCc1cccc(CC)c1-n1c(SCC(=O)N2CC(=O)Nc3ccccc32)nnc1-c1cccnc1 | 25.1 µM | 31.6 µM | 25.1 µM | > 50.1 µM | 39.8 µM | > 50.1 µM | > 50.1 µM | > 50.1 µM | 0.501 µM | 1 µM | > 100 µM | 3.16 µM
5 | COc1ccc(C2C3CCCCC3(O)CCN2CC(=O)Nc2ccc(Cl)cc2Cl)cc1 (stereo not drawn) | 2.82 µM | 1.26 µM | 0.794 µM | 20 µM | 1.58 µM | 2.51 µM | 0.794 µM | > 50.1 µM | 7.94 µM | 25.1 µM | > 100 µM | 10 µM
6 | O=C(CN1CCC2(O)CCCCC2C1c1ccc2c(c1)OCO2)Nc1ccc(Cl)cc1Cl (stereo not drawn) | 12.6 µM | 5.01 µM | 3.16 µM | > 50.1 µM | 5.01 µM | 3.16 µM | 1.26 µM | > 50.1 µM | 12.6 µM | 7.94 µM | > 100 µM | 12.6 µM
7 | CC1CCCN(S(=O)(=O)c2ccc(C(=O)Nc3nc(-c4ccccn4)cs3)cc2)C1 (stereo not drawn) | 0.398 µM | 0.501 µM | 0.251 µM | 3.16 µM | 1.58 µM | 0.251 µM | 0.158 µM | 5.01 µM | 0.2 µM | 0.398 µM | 39.8 µM | 2.51 µM
8 | NC(=O)c1ccsc1NC(=O)c1ccc([N+](=O)[O-])s1 | 0.0794 µM | 0.126 µM | 0.1 µM | > 50.1 µM | 0.316 µM | 1.58 µM | 1.26 µM | 12.6 µM | 0.2 µM | 1.58 µM | > 100 µM | > 100 µM
9 | COc1ccc(OC)c(NC(=O)c2ccc([N+](=O)[O-])o2)c1 | 3.16 µM | 12.6 µM | 7.94 µM | 3.98 µM | 25.1 µM | 31.6 µM | 15.8 µM | 20 µM | 0.0158 µM | 0.0631 µM | 20 µM | 10 µM
